In patent publication US20230277536A1, “METHODS AND COMPOSITIONS FOR TREATING EWING FAMILY OF TUMORS” (priority 2021, published 2023):

How the values were obtained:
[1] = system: cyclin D1; assay: Western-blot analysis of cyclin D1 expression level; type: cell-based; settings: A673 and SK-N-MC cells, 10 nM, 12-48 hrs; FIG. 5
Procedure: (§1) Western-blot analysis was performed to examine the suppression by YM155 on the expression level of EWS-FLI1, the protein product of EWSR1-FLI1 translocation, and its effector proteins MYC and cyclin D1. In brief, A673 and SK-N-MC cells seeded on 6-well plates were treated with 10 nM YM155 for 12-48 hrs. The cells were then harvested and lysed in a lysis buffer containing protease inhibitor cocktail (Beyotime, China) at 4C. The concentrations of total protein in the cell lysates were determined by BCA Protein Assay Kit (ThermoFisher, USA). Forty micrograms of total protein was used in each lane for SDS-PAGE and western-blot assay. Antibodies against EWS-FLI1, MYC, and cyclin D1 were used to detect the expression levels of the proteins. GAPDH was used as a loading control.

[2] = system: SK-N-MC cell line; assay: In vitro cell proliferation assay (EdU labeling, high-content screening); type: cell-based; settings: EWSR1-FLI1 translocation, 72 hrs exposure, 2-fold dilutions from 200 nM, FIG. 1B
Procedure: (§2) In vitro cell proliferation assays were performed to test the sensitivity of Ewing tumor cell lines to treatment with YM155. The A673 and SK-N-MC cell lines, each of which have the EWSR1-FLI1 translocation that is characteristic of most cases of Ewing tumors, were seeded in 96-well plates at 2×10^3 cells/well and allowed to attach overnight at 37° C. and 5% CO2. The cells were exposed to YM155 at designated concentrations (2-fold serial dilutions starting from 200 nM) for 72 hrs.
(§3) Following drug exposure, the cells were labeled with 5-ethynyl-2′- deoxyuridine (EdU) to assess the tumor cell proliferation rates. The labeling lasted 4 hours in the presence of drug exposure. […]
(§4) The labeled cells were fixed with formaldehyde for 30 min, followed by staining with Hoechst 33342 in a buffer containing 0.5% triton X-100. The incorporated Edu was detected by Click-iT reaction where fixed cells were incubated with a reaction mixture containing 1X Click-iT EdU reaction buffer, CuSO4, and azide-conjugated fluorescent dye in the dark. […]
(§5) The stained tumor cells were imaged by a high-content screening (HCS) platform (Thermo Scientific Cellomics Array Scan XTi HCS reader). […] From the images fluorescent signals for cell nucleus and the EdU incorporated in newly synthesized DNA were obtained from the HCS reader. […] The IC50 was calculated from the dose response curve of drug inhibition.

[3] = system: A673 cell line; assay: as above; type: cell-based; settings: A673, EWSR1-FLI1 translocation; 72 hrs exposure, 2-fold dilutions from 200 nM; FIG. 1A
Procedure: as §2, §3, §4, §5

[4] = system: SK-N-MC xenograft; assay: Murine SK-N-MC xenograft Ewing tumor model; type: in vivo, mice
[5] = system: A673 cells; assay: Apoptosis assays (Annexin V/PI and caspase 3 activity, flow cytometry); type: cell-based; settings: 10 nM, 3 days drug exposure, vs DMSO, FIGS. 2A-2D
Procedure: (§6) Cellular apoptosis was then assayed with the Alexa Fluor™ 488 Annexin V/Dead cell apoptosis Kit (ThermoFisher®, USA) and GreenNuc™ live cell caspase 3 activity assay kit (Beyotime Biotechnology, China). Briefly, cells cultured in 6-well tissue culture plates were treated with 10 nM YM155 or DMSO (control). Following 3 days drug exposure, the cells were collected and assayed for apoptosis according to the manufacturers' instructions. For annexin V assay, the cell suspensions were incubated with Alexa Flour™ 488 labeled annexin V and Propidium Iodide (PI). For the caspase 3 activity assay, a caspase 3 substrate was added to generate fluorescent product. The cells were then analyzed on a BD LSR Fortessa cell analyzer. Flow cytometry data was analyzed with Flowjo software.

[6] = system: SK-N-MC cells; assay: as above; type: cell-based; settings: 10 nM, 3 days drug exposure, vs DMSO, FIGS. 3A-3D
Procedure: as §6

[7] = system: EWS-FLI1; assay: Western-blot analysis of EWS-FLI1 expression level; type: cell-based; settings: A673 and SK-N-MC cells, 10 nM, 12-48 hrs; FIG. 5
Procedure: as §1

[8] = system: A673 xenograft; assay: Murine A673 xenograft Ewing tumor model
Procedure: The dosing schedules in FIG. 4B are as follows: YM155 monobromide, 3.5 mg/kg, 21-day-infusion with an osmotic pump; vincristine, 0.5 mg/kg, QW*3, IV; doxorubicin, 3.3 mg/kg, QW*3, IV; cyclophosphamide, 40 mg/kg, QW*3, IV. The dosing schedules in FIG. 4B are as follows: YM155 monobromide, 2 mg/kg, 21-day-infusion with an osmotic pump; ifosfamide, 30 mg/kg, QW*3, IV; etoposide, 7.5 mg/kg, QW*3, IP. […] The dosing schedules were as follows: YM155 monobromide, 3.5 mg/kg, 21-day-infusion with an osmotic pump; vincristine, 0.5 mg/kg, QW*3, IV; doxorubicin, 3.3 mg/kg, QW*3, IV; cyclophosphamide, 40 mg/kg, QW*3, IV.
To test for in vivo activity, a Ewing tumor model was generated by implanting either A673 or SK-N-MC cells into mice. When the tumor size reached 150 mm3, the mice were grouped randomly and injected with YM155 by 21-day infusion with an osmotic pump. The tumor size was measured every three days.

[9] = system: MYC; assay: Western-blot analysis of MYC expression level; type: cell-based; settings: A673 and SK-N-MC cells, 10 nM, 12-48 hrs; FIG. 5
Procedure: as §1

With “1-(2-Methoxyethyl)-2-methyl-4,9-dioxo-3-(pyrazin-2-ylmethyl)-4,9-dihydro-1H-naphtho[2,3-d] imidazolium bromide [YM155]” the “protein expression of cyclin D1” value [1] was “inhibited protein expression”, the “sensitivity to YM155 in in vitro cell proliferation assay” value [2] was “highly sensitive” and the “sensitivity to YM155 in in vitro cell proliferation assay” value [3] was “highly sensitive”. The “effect on tumor growth” value ([4]; SK-N-MC xenograft in mice, 3.5 mg/kg, 21-day infusion with osmotic pump, FIG. 4C) was “strong inhibitory effect on tumor growth”, the “efficacy compared with vincristine standalone therapy” value ([4]; SK-N-MC xenograft, YM155 3.5 mg/kg 21-day infusion vs vincristine 0.5 mg/kg QW*3 IV) was “superior” and the “efficacy compared with vincristine/doxorubicin/cyclophosphamide triple therapy” value ([4]; SK-N-MC xenograft, YM155 3.5 mg/kg 21-day infusion vs vincristine 0.5, doxorubicin 3.3, cyclophosphamide 40 mg/kg QW*3 IV) was “superior”. For the same substance, the apoptosis induction [5] was “induced strong apoptosis”, the apoptosis induction [6] was “induced strong apoptosis” and the “protein expression of EWS-FLI1” value [7] was “inhibited protein expression”. For the same substance, the “effect on tumor growth” value ([8]; A673 xenograft in mice, 21-day infusion with osmotic pump, 3.5 or 2 mg/kg, FIGS. 4A-4B) was “strong inhibitory effect on tumor growth”, the “efficacy compared with ifosfamide/etoposide combination therapy” value ([8]; A673 xenograft, YM155 2 mg/kg 21-day infusion vs ifosfamide 30 mg/kg QW*3 IV, etoposide 7.5 mg/kg QW*3 IP) was “superior” and the “efficacy compared with vincristine standalone therapy” value ([8]; A673 xenograft, YM155 3.5 mg/kg 21-day infusion vs vincristine 0.5 mg/kg QW*3 IV) was “superior”. For the same substance, the “efficacy compared with vincristine/doxorubicin/cyclophosphamide triple therapy” value ([8]; A673 xenograft, YM155 3.5 mg/kg 21-day infusion vs vincristine 0.5, doxorubicin 3.3, cyclophosphamide 40 mg/kg QW*3 IV) was “superior” and the “protein expression of MYC” value [9] was “inhibited protein expression”.
